Experiments:
Human δ-opioid (DOP) = target: T1, Human δ-opioid (DOP) (Homo sapiens, UniProt P41143); assay: Radioligand binding, human δ-opioid (DOP) membranes, FlashPlate, [3H]-Bremazocine; conditions: compound at 10 μM; for A1: inhibition of radioligand binding, human δ-opioid (DOP) / A1 radioligand binding, percentage inhibition: [3H]-Bremazocine
T1 construct: purchased Perkin Elmer Biosignal
Summary of the method: (§1)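 Cloned human receptor membranes were coated onto FlashPlate wells and incubated with radioligand and compound (added from a 0.5 mM DMSO daughter plate) for 1 hour at room temperature in the dark. Scintillation counting gave percent inhibition, with DMSO defining total and reference ligand defining non-specific binding.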

Human κ-Opioid (KOP) = target: T2, Human κ-Opioid (KOP) (Homo sapiens, UniProt P41145); assay: Radioligand binding, human κ-opioid (KOP) membranes, filtration, [3H]-Diprenorphine; conditions: compound at 10 μM; for A2: inhibition of radioligand binding, human κ-opioid (KOP) / A2 radioligand binding, percentage inhibition: [3H]-Diprenorphine
T2 construct: purchased Perkin Elmer Biosignal
Summary of the method: (§2)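 Filtration binding on cloned human receptor membranes (1 Unit/well), [125I]-Substance P for NK1 and [3H]-Diprenorphine for KOP, 1 h at room temperature. Filters PEI-presoaked, washed with cold 50 mM Tris-HCl pH 7.4, counted by scintillation; percent inhibition calculated, reference ligand defining non-specific binding.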

Human Melanocortin (MC3) = target: T3, Human Melanocortin (MC3) (Homo sapiens, UniProt P41968); assay: Radioligand binding, human melanocortin MC3 membranes, FlashPlate, [125I]-NDP-αMSH; conditions: compound at 10 μM; for A3: inhibition of radioligand binding, human melanocortin (MC3) / A3 radioligand binding, percentage inhibition: [125I]-NDP-αMSH
T3 construct: purchased Perkin Elmer Biosignal
Summary of the method: as §1

Human Melanocortin (MC4) = target: T4, Human Melanocortin (MC4) (Homo sapiens, UniProt P32245); assay: Radioligand binding, human melanocortin MC4 membranes, FlashPlate, [125I]-NDP-αMSH; conditions: compound at 10 μM; for A4: inhibition of radioligand binding, human melanocortin (MC4) / A4 radioligand binding, percentage inhibition: [125I]-NDP-αMSH
T4 construct: purchased Perkin Elmer Biosignal
Summary of the method: as §1

Human melanocortin (MC5) = target: T5, Human melanocortin (MC5) (Homo sapiens, UniProt P33032); assay: Radioligand binding, human melanocortin MC5 membranes, FlashPlate, [125I]-NDP-αMSH; conditions: compound at 10 μM; for A5: inhibition of radioligand binding, human melanocortin (MC5) / A5 radioligand binding, percentage inhibition: [125I]-NDP-αMSH
T5 construct: purchased Perkin Elmer Biosignal
Summary of the method: as §1

[1] = target: T6, Human melanin-concentrating hormone (MCH1) (Homo sapiens, UniProt Q99705); assay: Radioligand binding, human melanin-concentrating hormone MCH1 membranes, FlashPlate, [125I]-S36057; conditions: compound at 10 μM; for A6: inhibition of radioligand binding, human melanin-concentrating hormone (MCH1) / A6 radioligand binding, percentage inhibition: [125I]-S36057
T6 construct: purchased Perkin Elmer Biosignal
Summary of the method: as §1

Human μ-opioid (MOP) = target: T7, Human μ-opioid (MOP) (Homo sapiens, UniProt P35372); assay: Radioligand binding, human μ-opioid (MOP) membranes, FlashPlate, [3H]-Naloxone; conditions: compound at 10 μM; for A7: inhibition of radioligand binding, human μ-opioid (MOP) / A7 radioligand binding, percentage inhibition: [3H]-Naloxone
T7 construct: purchased Perkin Elmer Biosignal
Summary of the method: as §1

Human neurokinin (NK1) = target: T8, Human neurokinin (NK1) (Homo sapiens, UniProt P25103); assay: Radioligand binding, human neurokinin NK1 membranes, filtration, [125I]-Substance P; conditions: compound at 10 μM; for A8: inhibition of radioligand binding, human neurokinin (NK1) / A8 radioligand binding, percentage inhibition: [125I]-Substance P
T8 construct: purchased Perkin Elmer Biosignal
Summary of the method: as §2

[2] = target: T9, Human neuropeptide Y (NPY-Y1) (Homo sapiens, UniProt P25929); assay: Radioligand binding, human neuropeptide Y NPY-Y1 membranes, FlashPlate, [125I]-PYY; conditions: compound at 10 μM; for A9: inhibition of radioligand binding, human neuropeptide Y (NPY-Y1) / A9 radioligand binding, percentage inhibition: [125I]-PYY
T9 construct: purchased Perkin Elmer Biosignal
T9 sequence (P25929 1-384): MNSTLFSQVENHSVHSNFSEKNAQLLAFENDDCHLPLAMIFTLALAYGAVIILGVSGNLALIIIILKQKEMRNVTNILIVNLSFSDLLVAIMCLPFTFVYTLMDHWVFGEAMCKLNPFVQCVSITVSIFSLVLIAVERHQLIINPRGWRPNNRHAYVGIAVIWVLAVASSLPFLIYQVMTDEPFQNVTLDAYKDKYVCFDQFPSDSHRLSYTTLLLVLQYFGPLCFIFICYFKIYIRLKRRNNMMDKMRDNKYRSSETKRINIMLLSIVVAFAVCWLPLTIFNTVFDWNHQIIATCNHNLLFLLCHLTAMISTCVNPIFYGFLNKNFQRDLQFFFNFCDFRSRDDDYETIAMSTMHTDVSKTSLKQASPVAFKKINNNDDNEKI
Summary of the method: as §1

Human opioid (ORL1) = target: T10, Human opioid (ORL1) (Homo sapiens, UniProt P41146); assay: Radioligand binding, human opioid ORL1 membranes, FlashPlate, [125I]-Nociceptin; conditions: compound at 10 μM; for A10: inhibition of radioligand binding, human opioid (ORL1) / A10 radioligand binding, percentage inhibition: [125I]-Nociceptin
T10 construct: purchased Perkin Elmer Biosignal
Summary of the method: as §1

Mouse urotensin (mUR2) = target: T11, Mouse urotensin (mUR2) (Mus musculus, UniProt Q8VIH9); assay: Radioligand binding, mouse urotensin mUR2 membranes, FlashPlate, [125I]-Urotensin II; conditions: compound at 10 μM; for A11: inhibition of radioligand binding, mouse urotensin (mUR2) / A11 radioligand binding, percentage inhibition: [125I]-Urotensin II
T11 construct: purchased Perkin Elmer Biosignal
T11 sequence (Q8VIH9 1-385): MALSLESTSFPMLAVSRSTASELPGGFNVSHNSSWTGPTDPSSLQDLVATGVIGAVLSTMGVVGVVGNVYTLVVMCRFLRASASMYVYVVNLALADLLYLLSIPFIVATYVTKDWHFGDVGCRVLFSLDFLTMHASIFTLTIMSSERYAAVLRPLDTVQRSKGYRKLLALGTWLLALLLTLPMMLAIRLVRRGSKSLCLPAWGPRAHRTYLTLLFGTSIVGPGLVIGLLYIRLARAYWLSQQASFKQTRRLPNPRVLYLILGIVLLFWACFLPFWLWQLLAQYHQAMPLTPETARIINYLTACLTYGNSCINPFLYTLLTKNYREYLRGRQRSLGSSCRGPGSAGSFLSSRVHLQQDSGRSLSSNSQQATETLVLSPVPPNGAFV
Summary of the method: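 Cloned mouse urotensin (mUR2) receptor membranes from Perkin Elmer Biosignal were immobilized in FlashPlate microplates using a proprietary coating. Each well got 19.5 μl buffer, then 0.5 μl of DMSO, reference ligand, or compound. Adding 5 μl of [125I]-Urotensin II, diluted to 5× final concentration in binding buffer, started binding. Plates were sealed with TopSeal-A and incubated 1 hour at room temperature in the dark. Wells were counted for 30 seconds each on a TopCount after a 60-second delay, and percentage inhibition was calculated.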

T10 sequence (P41146 whole entry): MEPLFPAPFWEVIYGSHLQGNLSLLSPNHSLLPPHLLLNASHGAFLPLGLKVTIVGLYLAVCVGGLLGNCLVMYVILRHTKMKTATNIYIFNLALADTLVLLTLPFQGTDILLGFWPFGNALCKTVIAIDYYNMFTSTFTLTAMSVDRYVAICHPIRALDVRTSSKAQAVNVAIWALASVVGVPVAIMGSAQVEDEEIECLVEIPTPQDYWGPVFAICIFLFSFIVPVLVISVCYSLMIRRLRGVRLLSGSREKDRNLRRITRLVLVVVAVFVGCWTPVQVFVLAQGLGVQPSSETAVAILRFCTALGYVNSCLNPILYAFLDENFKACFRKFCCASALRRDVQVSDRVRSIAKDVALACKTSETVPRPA
T7 sequence (P35372 whole entry): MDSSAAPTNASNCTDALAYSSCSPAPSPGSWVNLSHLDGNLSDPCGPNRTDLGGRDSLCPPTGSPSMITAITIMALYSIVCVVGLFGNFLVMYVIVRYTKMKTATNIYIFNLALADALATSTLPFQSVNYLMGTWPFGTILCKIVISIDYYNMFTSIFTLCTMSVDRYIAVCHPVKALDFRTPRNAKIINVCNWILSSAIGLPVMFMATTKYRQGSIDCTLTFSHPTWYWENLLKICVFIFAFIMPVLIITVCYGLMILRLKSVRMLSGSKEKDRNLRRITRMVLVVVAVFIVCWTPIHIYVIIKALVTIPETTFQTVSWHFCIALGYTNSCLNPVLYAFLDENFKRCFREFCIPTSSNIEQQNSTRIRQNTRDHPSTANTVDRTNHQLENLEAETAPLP
T2 sequence (P41145 whole entry): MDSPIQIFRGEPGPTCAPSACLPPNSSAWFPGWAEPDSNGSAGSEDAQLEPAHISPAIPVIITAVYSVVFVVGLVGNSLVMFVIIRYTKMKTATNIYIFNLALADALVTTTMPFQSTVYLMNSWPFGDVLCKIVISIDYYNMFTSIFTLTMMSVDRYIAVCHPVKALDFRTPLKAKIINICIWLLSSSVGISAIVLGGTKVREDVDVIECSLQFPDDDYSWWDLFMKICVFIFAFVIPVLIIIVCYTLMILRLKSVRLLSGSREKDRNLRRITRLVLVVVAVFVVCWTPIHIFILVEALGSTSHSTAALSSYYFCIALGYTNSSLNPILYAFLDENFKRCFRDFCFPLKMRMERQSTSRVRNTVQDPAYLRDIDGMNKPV
T3 sequence (P41968 whole entry): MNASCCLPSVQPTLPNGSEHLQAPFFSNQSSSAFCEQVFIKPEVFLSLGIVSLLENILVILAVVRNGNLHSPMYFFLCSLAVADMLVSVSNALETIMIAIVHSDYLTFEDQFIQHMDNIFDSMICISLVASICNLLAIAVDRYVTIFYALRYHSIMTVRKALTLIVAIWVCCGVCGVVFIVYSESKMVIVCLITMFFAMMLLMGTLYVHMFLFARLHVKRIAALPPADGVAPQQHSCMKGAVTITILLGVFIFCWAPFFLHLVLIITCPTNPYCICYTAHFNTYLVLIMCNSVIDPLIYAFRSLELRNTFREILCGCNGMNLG
T8 sequence (P25103 whole entry): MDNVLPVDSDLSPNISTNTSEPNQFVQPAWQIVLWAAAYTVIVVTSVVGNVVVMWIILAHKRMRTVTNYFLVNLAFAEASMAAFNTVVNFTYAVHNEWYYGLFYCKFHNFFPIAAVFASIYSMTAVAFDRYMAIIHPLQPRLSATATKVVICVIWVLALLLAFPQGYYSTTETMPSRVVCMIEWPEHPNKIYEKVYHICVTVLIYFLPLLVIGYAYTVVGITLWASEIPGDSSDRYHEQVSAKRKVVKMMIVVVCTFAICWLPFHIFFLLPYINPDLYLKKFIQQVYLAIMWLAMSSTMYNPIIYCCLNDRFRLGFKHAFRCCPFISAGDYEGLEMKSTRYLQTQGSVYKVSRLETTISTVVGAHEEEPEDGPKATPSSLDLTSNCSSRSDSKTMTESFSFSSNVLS
T4 sequence (P32245 whole entry): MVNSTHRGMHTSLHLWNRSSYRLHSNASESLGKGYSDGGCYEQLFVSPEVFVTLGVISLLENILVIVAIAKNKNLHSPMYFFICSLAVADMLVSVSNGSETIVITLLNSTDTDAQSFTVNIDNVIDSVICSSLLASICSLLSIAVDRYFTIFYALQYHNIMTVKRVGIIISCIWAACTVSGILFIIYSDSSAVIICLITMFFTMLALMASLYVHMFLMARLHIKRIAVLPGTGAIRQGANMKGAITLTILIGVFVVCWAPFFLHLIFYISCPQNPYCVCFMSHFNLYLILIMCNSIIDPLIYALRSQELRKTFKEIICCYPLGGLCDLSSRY
T5 sequence (P33032 whole entry): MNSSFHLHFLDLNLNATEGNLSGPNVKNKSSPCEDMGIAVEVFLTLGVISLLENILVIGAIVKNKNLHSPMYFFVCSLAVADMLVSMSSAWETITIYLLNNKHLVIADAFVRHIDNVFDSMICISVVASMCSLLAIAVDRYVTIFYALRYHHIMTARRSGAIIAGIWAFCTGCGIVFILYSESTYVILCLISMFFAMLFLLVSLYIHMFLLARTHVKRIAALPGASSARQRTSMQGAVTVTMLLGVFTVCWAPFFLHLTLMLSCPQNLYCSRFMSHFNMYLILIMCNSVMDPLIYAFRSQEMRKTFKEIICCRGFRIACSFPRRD
T6 sequence (Q99705 whole entry): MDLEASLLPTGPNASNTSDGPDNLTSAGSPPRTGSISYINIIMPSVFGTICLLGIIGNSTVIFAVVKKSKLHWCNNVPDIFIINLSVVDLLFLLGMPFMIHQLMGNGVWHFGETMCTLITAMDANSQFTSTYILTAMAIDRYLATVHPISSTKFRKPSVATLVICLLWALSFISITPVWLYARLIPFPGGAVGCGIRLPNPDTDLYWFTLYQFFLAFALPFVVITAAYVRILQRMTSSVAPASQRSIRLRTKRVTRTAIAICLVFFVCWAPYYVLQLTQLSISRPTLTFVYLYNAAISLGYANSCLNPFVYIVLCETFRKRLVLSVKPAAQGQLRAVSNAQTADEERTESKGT
T1 sequence (P41143 whole entry): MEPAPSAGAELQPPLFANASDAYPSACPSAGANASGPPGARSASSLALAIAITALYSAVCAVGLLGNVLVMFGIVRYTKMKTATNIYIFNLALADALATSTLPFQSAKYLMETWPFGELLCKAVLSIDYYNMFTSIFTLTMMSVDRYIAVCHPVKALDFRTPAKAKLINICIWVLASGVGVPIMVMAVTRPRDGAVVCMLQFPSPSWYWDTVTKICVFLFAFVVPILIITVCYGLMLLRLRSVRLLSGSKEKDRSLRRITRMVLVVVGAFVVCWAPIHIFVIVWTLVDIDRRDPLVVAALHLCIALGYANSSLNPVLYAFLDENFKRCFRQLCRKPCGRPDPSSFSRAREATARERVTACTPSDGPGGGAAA

| Structure (SMILES) | A1: inhibition of radioligand binding, human δ-opioid (DOP) (Human δ-opioid (DOP)) | A2: inhibition of radioligand binding, human κ-opioid (KOP) (Human κ-Opioid (KOP)) | A3: inhibition of radioligand binding, human melanocortin (MC3) (Human Melanocortin (MC3)) | A7: inhibition of radioligand binding, human μ-opioid (MOP) (Human μ-opioid (MOP)) | A8: inhibition of radioligand binding, human neurokinin (NK1) (Human neurokinin (NK1)) | A9: inhibition of radioligand binding, human neuropeptide Y (NPY-Y1) [2] | A10: inhibition of radioligand binding, human opioid (ORL1) (Human opioid (ORL1)) | A11: inhibition of radioligand binding, mouse urotensin (mUR2) (Mouse urotensin (mUR2)) | A1 radioligand binding, percentage inhibition (Human δ-opioid (DOP)) | A2 radioligand binding, percentage inhibition (Human κ-Opioid (KOP)) | A3 radioligand binding, percentage inhibition (Human Melanocortin (MC3)) | A4 radioligand binding, percentage inhibition (Human Melanocortin (MC4)) | A5 radioligand binding, percentage inhibition (Human melanocortin (MC5)) | A6 radioligand binding, percentage inhibition [1] | A7 radioligand binding, percentage inhibition (Human μ-opioid (MOP)) | A8 radioligand binding, percentage inhibition (Human neurokinin (NK1)) | A9 radioligand binding, percentage inhibition [2] | A10 radioligand binding, percentage inhibition (Human opioid (ORL1)) | A11 radioligand binding, percentage inhibition (Mouse urotensin (mUR2)) | other results |
| --- | --- | --- | --- | --- | --- | --- | --- | --- | --- | --- | --- | --- | --- | --- | --- | --- | --- | --- | --- | --- |
| NCCCC(=O)NC1C(OCc2ccc(Cl)cc2)OC(COCc2ccccc2)C(O)C1OCc1ccc(Cl)cc1 (single isomer, unassigned) [compound 491] | − (“−” indicates less than 50% inhibition at 10 μM) | − (“−” indicates less than 50% inhibition at 10 μM) | − (“−” indicates less than 50% inhibition at 10 μM) | − (“−” indicates less than 50% inhibition at 10 μM) | + (“+” indicates greater than 50% inhibition at 10 μM) | − (“−” indicates less than 50% inhibition at 10 μM) | + (“+” indicates greater than 50% inhibition at 10 μM) | − (“−” indicates less than 50% inhibition at 10 μM) | – | – | – | – | – | – | – | – | – | – | – | A4: inhibition of radioligand binding, human melanocortin (MC4) (Human Melanocortin (MC4); 10 µM): − (“−” indicates less than 50% inhibition at 10 μM); A5: inhibition of radioligand binding, human melanocortin (MC5) (Human melanocortin (MC5); 10 µM): − (“−” indicates less than 50% inhibition at 10 μM); A6: inhibition of radioligand binding, human melanin-concentrating hormone (MCH1) ([1]; 10 µM): − (“−” indicates less than 50% inhibition at 10 μM) |
| CO[C@H]1[C@H](O)[C@@H](COCc2cccc(O)c2)OC(OCc2ccc(Cl)cc2)[C@@H]1NC(=O)CCCN (stereo partly shown) [compound 156] | – | – | – | – | – | – | – | – | − (“−” indicates less than 50% inhibition at 10 μM) | − (“−” indicates less than 50% inhibition at 10 μM) | − (“−” indicates less than 50% inhibition at 10 μM) | − (“−” indicates less than 50% inhibition at 10 μM) | + (“+” indicates greater than 50% inhibition at 10 μM) | − (“−” indicates less than 50% inhibition at 10 μM) | − (“−” indicates less than 50% inhibition at 10 μM) | + (“+” indicates greater than 50% inhibition at 10 μM) | − (“−” indicates less than 50% inhibition at 10 μM) | − (“−” indicates less than 50% inhibition at 10 μM) | − (“−” indicates less than 50% inhibition at 10 μM) | – |
| CO[C@H]1[C@H](O)[C@@H](COCc2ccc(-c3ccccc3)cc2)OC(OCc2ccc3ccccc3c2)[C@@H]1NC(=O)CNC(=N)N (stereo partly shown) [compound 66] | – | – | – | – | – | – | – | – | – | – | – | – | – | – | – | – | – | – | – | A1 radioligand binding inhibition (Human δ-opioid (DOP); human δ-opioid (DOP) membranes): − (“−” indicates less than 50% inhibition at 10 μM); A2 radioligand binding inhibition (Human κ-Opioid (KOP); human κ-opioid (KOP) membranes): − (“−” indicates less than 50% inhibition at 10 μM); A3 radioligand binding inhibition (Human Melanocortin (MC3); human melanocortin MC3 membranes): + (“+” indicates greater than 50% inhibition at 10 μM); A4 radioligand binding inhibition (Human Melanocortin (MC4); human melanocortin MC4 membranes): + (“+” indicates greater than 50% inhibition at 10 μM); A5 radioligand binding inhibition (Human melanocortin (MC5); human melanocortin MC5 membranes): + (“+” indicates greater than 50% inhibition at 10 μM); A6 radioligand binding inhibition ([1]; human MCH1 membranes): + (“+” indicates greater than 50% inhibition at 10 μM); A7 radioligand binding inhibition (Human μ-opioid (MOP); human μ-opioid (MOP) membranes): + (“+” indicates greater than 50% inhibition at 10 μM); A8 radioligand binding inhibition (Human neurokinin (NK1); human neurokinin NK1 membranes): + (“+” indicates greater than 50% inhibition at 10 μM); A9 radioligand binding inhibition ([2]; human NPY-Y1 membranes): − (“−” indicates less than 50% inhibition at 10 μM); A10 radioligand binding inhibition (Human opioid (ORL1); human ORL1 membranes): − (“−” indicates less than 50% inhibition at 10 μM); A11 radioligand binding inhibition (Mouse urotensin (mUR2); mouse urotensin mUR2 membranes): − (“−” indicates less than 50% inhibition at 10 μM) |
| CO[C@H]1[C@H](O)[C@@H](COCc2cccc(O)c2)OC(OCc2ccc3ccccc3c2)[C@@H]1NC(=O)CCCNC(=N)N (stereo partly shown) [compound 152] | – | – | – | – | – | – | – | – | − (“−” indicates less than 50% inhibition at 10 μM) | − (“−” indicates less than 50% inhibition at 10 μM) | − (“−” indicates less than 50% inhibition at 10 μM) | − (“−” indicates less than 50% inhibition at 10 μM) | − (“−” indicates less than 50% inhibition at 10 μM) | − (“−” indicates less than 50% inhibition at 10 μM) | + (“+” indicates greater than 50% inhibition at 10 μM) | − (“−” indicates less than 50% inhibition at 10 μM) | − (“−” indicates less than 50% inhibition at 10 μM) | − (“−” indicates less than 50% inhibition at 10 μM) | − (“−” indicates less than 50% inhibition at 10 μM) | – |
| CO[C@H]1[C@H](O)[C@@H](COCc2ccc3ccccc3c2)OC(OCc2ccc(Cl)cc2)[C@@H]1NC(=O)C1CCCN1 (stereo partly shown) [compound 352] | − (“−” indicates less than 50% inhibition at 10 μM) | − (“−” indicates less than 50% inhibition at 10 μM) | − (“−” indicates less than 50% inhibition at 10 μM) | − (“−” indicates less than 50% inhibition at 10 μM) | + (“+” indicates greater than 50% inhibition at 10 μM) | − (“−” indicates less than 50% inhibition at 10 μM) | − (“−” indicates less than 50% inhibition at 10 μM) | − (“−” indicates less than 50% inhibition at 10 μM) | – | – | – | – | – | – | – | – | – | – | – | A4: inhibition of radioligand binding, human melanocortin (MC4) (Human Melanocortin (MC4)): − (“−” indicates less than 50% inhibition at 10 μM); A5: inhibition of radioligand binding, human melanocortin (MC5) (Human melanocortin (MC5)): − (“−” indicates less than 50% inhibition at 10 μM); A6: inhibition of radioligand binding, human melanin-concentrating hormone (MCH1) [1]: − (“−” indicates less than 50% inhibition at 10 μM) |

Reference: US20080009418A1, “Selective Inhibitors” (Alchemia LTD., priority 2004, published 2008)
